pIC50: −log10 of the molar value.
Tests used:
[1] = biological target: HCV NS5B RNA-dependent RNA polymerase (1b-BKΔ55) (Hepatitis C virus genotype 1b (isolate BK) (HCV), UniProt P26663); assay: biochemical
[2] = test system: human cryopreserved hepatocyte; assay type: in vitro ADME; settings: human hepatocytes, NTP level over Ki
Protocol: A 2 mM stock solution of the prodrug test compound is prepared in 5% DMSO/95% MeOH to provide a final sample concentration of 10 μM. A 5 μL aliquot is removed from this stock solution and added to 1 mL of either a rat or human cryopreserved hepatocyte sample to provide a control sample at a concentration of 1 million cells/mL. This sample is assayed in triplicate and used as a test sample.
Human and rat hepatocytes are removed from liquid nitrogen storage and thawed by submerging the hepatocyte tube into a pre-heated 37° C. waterbath and gently shaking the tube back & forth until thawed. The thawed hepatocytes are then gently poured into a container of Hepatocyte Basal Medium (50 mL, pre-warmed to 37° C.) and washed. […]
A 1 mL aliquot is removed from the 1 million cells/mL final hepatocyte suspension, analyzed in triplicate and placed into 20 mL scintillation vial without a cap. […]
The incubated hepatocyte suspension samples are transferred to a micro-centrifuge tube using a transfer pipette and centrifuged at 500 rpm for 4 minutes at room temperature. […] The resulting extract solution is then stored in a refrigerator at 4° C. until ready for use, at which point the sample is first subjected to vortexing/sonication to ensure that all hepatocyte cells have burst. […]

Sequence of HCV NS5B RNA-dependent RNA polymerase (1b-BKΔ55) (P26663 2420-2955): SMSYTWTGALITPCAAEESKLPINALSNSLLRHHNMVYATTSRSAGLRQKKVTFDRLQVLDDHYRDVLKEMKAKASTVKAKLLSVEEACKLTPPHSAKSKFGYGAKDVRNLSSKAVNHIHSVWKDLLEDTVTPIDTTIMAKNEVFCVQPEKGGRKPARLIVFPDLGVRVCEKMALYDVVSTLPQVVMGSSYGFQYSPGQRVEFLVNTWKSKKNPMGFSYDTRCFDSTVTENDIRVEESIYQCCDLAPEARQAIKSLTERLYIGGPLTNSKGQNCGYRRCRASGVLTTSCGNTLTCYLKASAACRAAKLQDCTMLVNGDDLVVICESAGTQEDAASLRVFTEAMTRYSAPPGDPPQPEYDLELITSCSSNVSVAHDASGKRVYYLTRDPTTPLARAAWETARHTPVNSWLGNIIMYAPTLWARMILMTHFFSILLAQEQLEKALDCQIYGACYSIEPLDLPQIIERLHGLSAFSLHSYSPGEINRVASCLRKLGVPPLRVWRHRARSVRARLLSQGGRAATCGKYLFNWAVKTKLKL

Row | SMILES | pIC50 [1] | Human Hepatocyte NTP (4 hour at 10 μM)/Ki [2]
1 | C[C@@]1(N)[C@H](O)[C@@H](COP(=O)(O)OP(=O)(O)OP(=O)(O)O)O[C@H]1n1ccc(N)nc1=O [Compound 81] | 5.64 | 
2 | CCOC(=O)[C@H](C)NP(=O)(OC[C@H]1O[C@@H](n2cnc3c(OC)nc(N)nc32)[C@](C)(N)[C@@H]1O)Oc1ccccc1 (some centres unmarked) [drawing 225] |  | 32 x
3 | C[C@@]1(N)[C@H](O)[C@@H](COP(=O)(O)OP(=O)(O)OP(=O)(O)O)O[C@H]1n1ccc(=O)[nH]c1=O [Compound 82] | 4.89 | 
4 | C[C@@]1(N)[C@H](O)[C@@H](COP(=O)(O)OP(=O)(O)OP(=O)(O)O)O[C@H]1n1cnc2c(=O)[nH]c(N)nc21 [Compound 80] | 6.22 | 
5 | CC(C)OC(=O)[C@H](C)NP(=O)(OC[C@H]1O[C@@H](n2ccc(=O)[nH]c2=O)[C@](C)(N)[C@@H]1O)Oc1ccccc1 (some centres unmarked) [drawing 226] |  | 30 x
